In assay [1] the test system is CRM1-mediated nuclear export of HDAC7-FLAG. As to the kind of experiment: Subcellular localization of HDAC7-FLAG in transfected cells by indirect immunofluorescence. Type of assay: cell-based. The procedure:
Immunofluorescence and Confocal Microscopy—Cells were plated onto glass coverslips and transfected the following day with Lipofectamine 2000 (Life Technologies) according to the manufacturer's instructions. After incubation overnight, transfected cells were fixed with 1% paraformaldehyde, permeabilized with phosphate buffered saline (PBS), pH 7.2 and 0.5% Triton X-100 and then incubated for 60 min at room temperature with the appropriate antibodies at dilutions typically between 1:100 and 1:1000. Cells were mounted onto glass slides in PBS/90% glycerol containing 1 mM paraphenylenediamine as an antifade reagent. Confocal microscopy was performed with a Zeiss LSM510 laser scanning confocal microscope at 488 nm (Alexa 488-conjugated secondary antibodies) and 543 nm (Cy3-conjugated secondary antibodies). The pinhole aperture was set to 1.0 airy unit for each channel. Band-pass filters and sequential scanning of individual fluorescent probes were used to eliminate cross talk between channels. Images were collected as 12-bit images, and each channel was independently rescaled from 0 to 255 (8-bit) for final presentation. […]

In a further assay the test system is Nur77. The assay can be described thus: Nur77 mRNA expression by northern blot in DO11.10 T-cells. The class given is cell-based, mouse. As to conditions: DO11.10 cells, 400 nM, various times. On the procedure:
DO11.10 T cell hybridomas were grown at 37° C., in RPMI 1640 medium supplemented with 10% FBS, 2 mM glutamine and 50 U/ml of streptomycin/penicillin. Transfections were performed by the DEAE-dextran-chlororquine method. The DNA concentration was kept constant in the different samples by using the corresponding empty vector. In some cases, 16 hours after transfection cells were treated with PMA (10 ng/ml) and ionomycin (0.5 μM) for 4 hours and then harvested for reporter assay. All transfections were done in triplicate and are presented as the result of at least 3 independent experiments. Luciferase reporter assays were done with the dual luciferase reporter assay system (Promega) using an EF1α promoter-driven renilla expression vector as an internal control.
The tissue-expression of HDAC7 was analyzed as using a multiple human tissue Northern blot and RNA Master blots obtained from Clontech. Expression of Nur77 upon TSA treatment was assessed as followed. DO11.10 cells were treated with 400 nM of TSA (Sigma) for various times. […] Autoradiographs were analyzed with a FUJIX BAS1000 phosphorus imaging system (Fuji, Tokyo, Japan). Quantification analysis of autoradiographs was performed on a Macintosh computer using the public domain NIH Image 1.62 program (developed at the U.S. National Institute of Health).

Another assay has as its system thymocytes. As to the kind of experiment: Apoptosis in thymocytes expressing dominant negative HDAC7 constructs, commercially available kit. The class given is cell-based. As to conditions: construct expressed in thymocytes. On the procedure:
Constructs encoding dominant negative mutants of HDAC7 were generated. These constructs direct expression of either the amino terminal domain (amino acids 1-437) or the carboxyl terminal domain (amino acids 438-915) of HDAC7 in mammalian cells. These construct were individually introduced into thymocytes. Apoptosis was measured using a commercially available kit.

`CCC(=C/[C@H](C)C/C=C/C(C)=C/[C@@H](C)C(=O)[C@@H](C)[C@H](O)[C@@H](C)C/C(C)=C/C(=O)O)/C=C/[C@@H]1OC(=O)C=C[C@@H]1C` [leptomycin B]: the “Subcellular localization of HDAC7-FLAG” value in assay [1] was “nuclear localization of HDAC7-FLAG in most transfected cells”.
With `CC(/C=C/C(=O)NO)=C\[C@@H](C)C(=O)c1ccc(N(C)C)cc1` [trichostatin A], the “Nur77 mRNA expression” value in the assay with Nur77 is “induced in a time dependent manner”.

B1: carboxyl terminal domain (amino acids 438-915): dominant negative mutant of HDAC7: carboxyl terminal domain, amino acids 438-915, expressed from a construct (protein, UniProt Q8WUI4 438-915, looked up, fragment)
chain: GPAPLQQHPQVLLWEQQRLAGRLPRGSTGDTVLLPLAQGGHRPLSRAQSSPAAPASLSAPEPASQARVLSSSETPARTLPFTTGLIYDSVMLKHQCSCGDNSRHPEHAGRIQSIWSRLQERGLRSQCECLRGRKASLEELQSVHSERHVLLYGTNPLSRLKLDNGKLAGLLAQRMFVMLPCGGVGVDTDTIWNELHSSNAARWAAGSVTDLAFKVASRELKNGFAVVRPPGHHADHSTAMGFCFFNSVAIACRQLQQQSKASKILIVDWDVHHGNGTQQTFYQDPSVLYISLHRHDDGNFFPGSGAVDEVGAGSGEGFNVNVAWAGGLDPPMGDPEYLAAFRIVVMPIAREFSPDLVLVSAGFDAAEGHPAPLGGYHVSAKCFGYMTQQLMNLAGGAVVLALEGGHDLTAICDASEACVAALLGNRVDPLSEEGWKQKPNLNAIRSLEAVIRVHSKYWGCMQRLASCPDSWVPRVPGA
Take B1: in the assay on thymocytes, the Apoptosis in thymocytes entry was “strongly induces apoptosis”.

B2: amino terminal domain (amino acids 1-437): dominant negative mutant of HDAC7: amino terminal domain, amino acids 1-437, expressed from a construct (protein, UniProt Q8WUI4 1-437, looked up, fragment)
chain: MDLRVGQRPPVEPPPEPTLLALQRPQRLHHHLFLAGLQQQRSVEPMRLSMDTPMPELQVGPQEQELRQLLHKDKSKRSAVASSVVKQKLAEVILKKQQAALERTVHPNSPGIPYRTLEPLETEGATRSMLSSFLPPVPSLPSDPPEHFPLRKTVSEPNLKLRYKPKKSLERRKNPLLRKESAPPSLRRRPAETLGDSSPSSSSTPASGCSSPNDSEHGPNPILGSEALLGQRLRLQETSVAPFALPTVSLLPAITLGLPAPARADSDRRTHPTLGPRGPILGSPHTPLFLPHGLEPEAGGTLPSRLQPILLLDPSGSHAPLLTVPGLGPLPFHFAQSLMTTERLSGSGLHWPLSRTRSEPLPPSATAPPPPGPMQPRLEQLKTHVQVIKRSAKPSEKPRLRQIPSAEDLETDGGGPGQVVDDGLEHRELGHGQPEAR
On to B2, for which, in the assay with thymocytes, the Apoptosis in thymocytes result was “strongly induces apoptosis”.

(Values after US7745173B2, “Histone deacetylase and methods of use thereof” (The J. David Gladstone Institutes, priority 2001, dated 2010).)
